Experimental data from patent publication US12338243B2, “P2X7 modulators” (JANSSEN PHARMACEUTICA NV, priority 2014, dated 2025).

Assays:
[1] = target: T1, P2X7 (Homo sapiens, UniProt Q99572); assay: Ca2+ flux (FLIPR) in 1321N1 cells expressing recombinant human P2X7 channel; type: cell-based; set-up: expressed in transfected cells; host or cells: 1321N1 cells; conditions: 250 μM BzATP
T1 sequence (Q99572 1-595): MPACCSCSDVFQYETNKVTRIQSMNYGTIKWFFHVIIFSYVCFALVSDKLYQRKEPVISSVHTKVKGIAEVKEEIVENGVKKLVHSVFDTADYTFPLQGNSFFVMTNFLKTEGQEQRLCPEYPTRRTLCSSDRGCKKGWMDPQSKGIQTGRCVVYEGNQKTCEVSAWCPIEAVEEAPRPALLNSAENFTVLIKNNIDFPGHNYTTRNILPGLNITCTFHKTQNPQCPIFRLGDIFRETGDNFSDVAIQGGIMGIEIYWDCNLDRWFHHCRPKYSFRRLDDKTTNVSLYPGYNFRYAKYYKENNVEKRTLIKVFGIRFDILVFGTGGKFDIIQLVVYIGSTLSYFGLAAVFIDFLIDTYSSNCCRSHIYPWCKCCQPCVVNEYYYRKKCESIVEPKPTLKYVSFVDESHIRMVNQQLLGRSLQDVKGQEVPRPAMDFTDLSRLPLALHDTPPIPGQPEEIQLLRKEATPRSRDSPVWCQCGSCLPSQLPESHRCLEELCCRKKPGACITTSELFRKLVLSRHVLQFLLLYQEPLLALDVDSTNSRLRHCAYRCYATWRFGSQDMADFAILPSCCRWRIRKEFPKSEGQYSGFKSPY
Procedure, shortened: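 1321N1 cells expressing recombinant human P2X7, loaded 60 min with Calcium-4 dye in HEPES buffer pH 7.40 (1 mM CaCl2, 1 mM MgCl2), preincubated 30 min with compounds. Fluorescence change recorded 180 seconds after agonist addition.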

[2] = target: T1, P2X7; assay: Radioligand binding, human P2X7-1321N1 cell membranes, tritiated A-804598
Description: (§3) P2X7 Antagonism in Recombinant Human P2X7 Cells or Recombinant Rat P2X7 Cells: (a) Ca^2+ Flux and (b) Radioligand Binding

[3] = target: T2, rat P2X7 (Rattus norvegicus, UniProt Q64663); assay: Ca2+ flux (FLIPR) in 1321N1 cells expressing recombinant rat P2X7 channel; conditions: FLIPR (rat) IC50 (μM), 250 μM BzATP
T2 sequence (Q64663 1-595): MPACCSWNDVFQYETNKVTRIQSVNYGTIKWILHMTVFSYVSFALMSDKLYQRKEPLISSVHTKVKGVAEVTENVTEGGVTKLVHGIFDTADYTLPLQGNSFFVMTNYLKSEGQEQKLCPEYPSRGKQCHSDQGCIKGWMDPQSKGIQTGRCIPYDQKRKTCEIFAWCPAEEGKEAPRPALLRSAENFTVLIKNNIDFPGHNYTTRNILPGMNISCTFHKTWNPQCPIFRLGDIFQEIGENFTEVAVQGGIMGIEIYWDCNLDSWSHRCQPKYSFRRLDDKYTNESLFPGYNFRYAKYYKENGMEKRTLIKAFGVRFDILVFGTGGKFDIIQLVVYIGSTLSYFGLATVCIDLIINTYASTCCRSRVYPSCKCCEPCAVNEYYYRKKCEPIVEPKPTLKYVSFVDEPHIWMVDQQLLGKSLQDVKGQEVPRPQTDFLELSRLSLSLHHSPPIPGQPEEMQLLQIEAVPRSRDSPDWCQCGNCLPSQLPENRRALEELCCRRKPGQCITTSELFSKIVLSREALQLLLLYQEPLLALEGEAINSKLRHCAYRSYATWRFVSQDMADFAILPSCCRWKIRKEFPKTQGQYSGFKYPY
Description: as §3
(a) Ca^2+ flux: 1321N1 cells expressing the recombinant human or rat P2X7 channel was cultured in HyQ DME/(HyClone/Dulbecco's Modified Eagle Medium) high glucose supplemented with 10% Fetal Bovine Serum (FBS) and appropriate selection marker. Cells were seeded at a density of 25000 cells/well (96-well clear bottom black walled plates) in 100 μl volume/well. On the day of the experiment, cell plates were washed with assay buffer, containing (in mM): 130 NaCl, 2 KCl, 1 CaCl2), 1 MgCl2, 10 HEPES, 5 glucose; pH 7.40 and 300 mOs. After the wash, cells were loaded with the Calcium-4 dye (Molecular Device) and incubated in the dark for 60 minutes. Test compounds were prepared at 250× the test concentration in neat DMSO. Intermediate 96-well compound plates were prepared by transferring 1.2 μL of the compound into 300 μL of assay buffer. A further 3× dilution occurred when transferring 50 μL/well of the compound plate to 100 μL/well in the cell plate. Cells were incubated with test compounds and dye for 30 minutes. […] The fluorescence change was measured 180 seconds after adding the agonist.

[4] = target: T1, P2X7; assay: P2X7 antagonism in human whole blood (IL-1β release, ELISA); type: cell-based; set-up: PBMCs were isolated from blood using a Ficoll density gradient technique; endogenous in cells; host or cells: human PBMCs / human whole blood from donors; conditions: LPS 30 ng/ml + 1 mM Bz-ATP
Description: (§1) P2X7 Antagonism in Human Peripheral Blood Mononuclear Cells (PBMCs) and Human Whole Blood.
(§2) Human blood was collected using a blood donor program. PBMCs were isolated from blood using a Ficoll density gradient technique. Briefly, blood was laid on Ficoll solution and centrifuged at RT for 20 minutes at 2000 rpm. The buffy layer (between red blood cells and plasma) was carefully collected by aspiration, washed with PBS and centrifuged again at 1500 rpm for 15 minutes. The resulting cell pellet was washed and plated on 96 well-plates for experiments. For the Human Whole Blood experiments, 150 μl of human blood was platted on 96 well-plates. Lipopolysaccharide (LPS) (30 ng/ml) was added to each well and incubated for 1 hour. Test compounds were then added and incubated for 30 minutes. The P2X7 agonist, 2′(3′)-O-(4-benzoylbenzoyl) adenosine 5′ triphosphate (Bz-ATP) was then added at a final concentration of 0.5 mM (PBMC) or 1 mM (blood). Cells were incubated for an additional 1.5 hours. At that point, supernatant was collected and stored for IL-1β assay using manufacturer's protocol for enzyme-linked immunosorbent assay (ELISA). Data was expressed as percent control, where control is defined as the difference in IL-1β release in LPS+Bz-ATP samples and LPS only samples. Data was plotted as response (% control) versus concentration to generate IC50 values. […] Data are analyzed and graphed on Graphpad Prism 5. For analysis, each concentration point is averaged from triplicate values and the averaged values are plotted on Graphpad Prism. The IC50 for each compound is then uploaded into 3DX.

[5] = target: T2, rat P2X7; assay: Radioligand binding, rat P2X7-1321N1 cell membranes, tritiated A-804598
Description: as §3

[6] = target: T1, P2X7; assay: P2X7 antagonism in human PBMCs (IL-1β release, ELISA); type: cell-based; set-up: PBMCs were isolated from blood using a Ficoll density gradient technique; endogenous in cells; host or cells: human PBMCs / human whole blood from donors; conditions: LPS 30 ng/ml + 0.5 mM Bz-ATP, compound 10 μM
Description: as §1, §2

Compound	IC50 [1] [nM]	Ki [2] [nM]	IC50 [3] [µM]	IC50 [4] [nM]	Ki [5] [nM]	PBMC 10 μM (% control) [6] [% control]
C[C@H]1Cn2c(nnc2-c2cc(F)c(F)c(F)c2)CN1C(=O)c1cccc(C(F)(F)F)c1Cl [Example 30, (S)-(2-chloro-3-(trifluoromethyl)phenyl)(6-methyl-3-(3,4,5-trifluorophenyl)-5,6-dihydro-[1,2,4]triazolo[4,3-a]pyrazin-7(8H)-yl)methanone]	83.8	50.1	0.927	1590		
Cc1nnc2n1CCN(C(=O)c1cccc(C(F)(F)F)c1Cl)C2c1ccccc1 (racemic) [Example 53, (2-chloro-3-(trifluoromethyl)phenyl)(3-methyl-8-phenyl-5,6-dihydro-[1,2,4]triazolo[4,3-a]pyrazin-7(8H)-yl)methanone]	2	15.8	0.0628	79	39.8	
C[C@H]1Cn2c(nnc2-c2ccco2)CN1C(=O)c1cccc(C(F)(F)F)c1Cl [Example 24, (S)-(2-chloro-3-(trifluoromethyl)phenyl)(3-(furan-2-yl)-6-methyl-5,6-dihydro-[1,2,4]triazolo[4,3-a]pyrazin-7(8H)-yl)methanone]	6.8	21.9	0.0047	25		
O=C(c1ccnc(C(F)(F)F)c1Cl)N1CCn2c(nnc2C(F)(F)F)C1c1ccccc1 (single isomer, unassigned) [Example 99, (R*)-(3-chloro-2-(trifluoromethyl)pyridin-4-yl)(8-phenyl-3-(trifluoromethyl)-5,6-dihydro-[1,2,4]triazolo[4,3-a]pyrazin-7(8H)-yl)methanone]	9.1	17.4	0.0348		6.3	4.9
